Source: patent publication EP0642343B1, “Acridine carboxamides for the treatment of cancer” (XENOVA LIMITED, priority 1992, dated 1993)
pIC50: −log10 of the molar value. Like-named read-outs stand apart in the source and are kept apart here.

Columns and labels:
human cell lines = assay: Cytotoxicity under continuous drug exposure, mean over human cell lines; assay type: cell-based; settings: continuous drug exposure over approx. 5 cell doubling times, read-out: mean IC50 value for human cell lines
Method: The latter value compared with 2 µM for the 4-pyridyl-quinoline analogue, 0.76 µM for amsacrine, 0.1 µM for the amsacrine analogue 4'-(9-[4-[N-methylcarboxamido]-5-methyl]-acridinylamino)-methanesulphon-m-anisidide ("CI-921") and 81 µM for etoposide.

[1] = test system: P388 murine leukaemia (P/ACTD); assay: Sensitivity of multidrug resistant P388 subline in vitro; assay type: cell-based; settings: P-glycoprotein positive multidrug resistant subline
Method: (§1) A multidrug resistant subline of P388 murine leukaemia (P/ACTD) was tested for sensitivity to DACA. This line was cross-resistant to actinomycin D, doxo-rubicin, mitoxantrone, etoposide and vincristine. Its resistance to vincristine was overcome by the presence of verapamil (10 µM). It stained for the presence of P-glycoprotein, consistent with the presence of transport-mediated multidrug resistance.

[2] = test system: P388 murine leukaemia (P/ACTD); assay: Sensitivity of multidrug resistant P388 subline in vivo
Method: as §1

[3] = Pharmacokinetic and tissue distribution studies (tritium label, HPLC); assay type: in vivo; settings: for tissue concentration: 1 h after intraperitoneal 400 µmol/kg, HPLC; for AUC: ip, 400 umol/kg, intraperitoneal 400 µmol/kg
From the text: We believe that administration of DACA at the new divided dose-high constituent dose frequency regime mentioned above will be helpful in combating brain tumours.

B1A = assay: Resistance factor, drug-resistant Jurkat leukaemia subline; assay type: cell-based, human; settings: B1A (from B1 by exposure to amsacrine); ratio of IC50 resistant line / parent line
Method: (§2) Tumour cell lines were cultured in 96-well plates. Growth of NCI cell lines was assessed using sulpho-rhodamine B staining (Skehan P., et al., J. Natl. Cancer Inst. 1990, 82, 1107-1112), that of the leukaemia lines with (4,5-dimethylthiazole-2-yl)-2,5-diphenyltetrazolium (MTT) staining (Mosmann T., J. Immun. Methods 1983, 65, 55-63) and that of the primary human tumour material by ^3H-thymidine incorporation (Marshall E.S., et al., J. Natl. Cancer Inst. 1992, 84, 341-344). Primary tumour material was cultured in 96-well plates in which the wells were coated with agarose to inhibit selectively the growth of normal cells. (Marshall E.S., et al., J. Natl. Cancer Inst. 1992, 84, 341-344). Primary cultures were incubated at 37°C in sealed perspex boxes containing a humidified atmosphere of 5% CO2 and 5% O2 in nitrogen for 7 days. 5-Methyl-[^3H]-thymidine (20 Ci.mmol^-1; 0.04 µCi per well), thymidine and 5-fluorodeoxyuridine (each at final concentrations of 0.5 µM) were added in medium to cultures (20 µl per well) 24 h before terminating the cultures. Cells were aspirated on to glass fibre filters using a multiple automated sample harvester (LKB Wallac OY Beta Harvester). The filter discs were washed for 15 seconds with water, dried, and the amount of tritium retained quantified by liquid scintillation.
(§3) IC50 values were defined as in Paull K.D., et al., J. Natl. Cancer Inst. 1989, 81:1088-1092, where growth, as indicated by staining or thymidine incorporation, corresponded to 50% of that of the control cultures. […] Variances of DELTA values were expressed as standard deviations in log10 units. Comparison of DELTA values was made using Pearson correlation coefficients. Resistance factors were defined as the ratios of IC50 values between the resistant line and the parent line. Statistical evaluation was performed either with NCI programmes, with RS/1 software (BBN Research Systems, Cambridge, MA, USA), or with Sigmaplot (Jandel Scientific, San Rafael, CA, USA).
(§4) The effect of DACA on the growth of cultured cells was assessed by continuous drug exposure. […] Four multidrug-resistant cell lines, developed from JL and JB1 by in vitro exposure to increasing concentrations of doxorubicin (LD and B1D) or amsacrine (LA and B1A) (Finlay G.J., et al., J. Natl. Cancer Inst. 1990, 82, 662-667, Snow K., et al., Br. J. Cancer 1991, 63, 17-28) were tested.
(§5) DACA was compared with six other drugs including four topo II poisons, doxorubicin, mitozantrone, etopo-side and amsacrine. […]

B1D = assay: as above; assay type: cell-based, human; settings: B1D (from B1 by exposure to doxorubicin); ratio of IC50 resistant line / parent line
Method: as §2, §3, §4, §5

LA = assay: as above; assay type: cell-based, human; settings: LA (from L by exposure to amsacrine); ratio of IC50 resistant line / parent line
Method: as §2, §3, §4, §5

LD = assay: as above; assay type: cell-based, human; settings: LD (from L by exposure to doxorubicin); ratio of IC50 resistant line / parent line
Method: as §2, §3, §4, §5

[4] = test system: panel of cell lines encompassing a number of tumour types; assay: NCI cell line panel, growth inhibition by protein staining; assay type: cell-based; settings: data provided by the National Cancer Institute
Method: as §2, §3

[5] = test system: P388 murine leukaemia (P/ACTD); settings: in vitro tests; reported by Schneider et al., Eur. J. Cancer Clin. Oncol. 1988; cited from earlier work

With CN(C)CCNC(=O)c1cccc2cc3ccccc3nc12 [DACA, N-[2-(dimethylamino)ethyl]acridine-4-carboxamide] the pIC50 (human cell lines) was 5.89, the “sensitivity of P/ACTD line” value [1] was “sensitive” and the “sensitivity of P/ACTD line” value [2] was “sensitive”. The tissue concentration ([3]; brain) was 45 µmol/kg, the tissue concentration ([3]; heart) was 57 µmol/kg and the AUC ([3]; brain, read-out: AUC) was 218 µM·h. It also gave an AUC ([3]; heart, read-out: AUC) of 147 µM·h, an AUC ([3]; kidney, read-out: AUC) of 492 µM·h and an AUC ([3]; liver, read-out: AUC) of 547 µM·h. For the same compound, the AUC ([3]; plasma, read-out: plasma AUC) was 26.6 µM·h, the tissue concentration ([3]; kidney) was 139 µmol/kg and the tissue concentration ([3]; liver) was 185 µmol/kg. For the same compound, the “elimination t1/2” value ([3]; tritium-labelled DACA, tissues including brain) was 37 to 176 h, the Resistance factors (B1A) was 3.9 and the Resistance factors (B1D) was 1.9. For the same compound, the Resistance factors (LA) was 2.0, the Resistance factors (LD) was 2.5 and the pIC50 [4] was 5.68. The “cross-resistance of P/ACTD cells” value [5] was “no cross-resistance”.
